Data from article PMC8698333 (Biomedicines, 2021).
No end group written: not given here.

How the values were obtained:
[1] = target: T1, hKOR (β-arrestin recruitment) (Homo sapiens, UniProt P41145); experiment: PRESTO-Tango β-arrestin recruitment assay; assay type: cell-based; conditions: SEM
T1 construct: tTA (Tango cassette); expressed in transfected cells; host or cells: HEK293, transient

hKOR with Gα3 subunit = target: T2, hKOR with Gα3 subunit (Homo sapiens, UniProt P41145); experiment: TRUPATH (BRET) G-protein dissociation, Gα3 subunit; assay type: cell-based; conditions: mean ± SEM
T2 construct: alpha7 nicotinic receptor signal peptide (N); expressed in transfected cells; host or cells: HEK293, transient

hKOR with GαoB subunit = target: T3, hKOR with GαoB subunit (Homo sapiens, UniProt P41145); experiment: TRUPATH (BRET) G-protein dissociation, GαoB subunit; assay type: cell-based; conditions: SEM
T3 construct: alpha7 nicotinic receptor signal peptide (N); expressed in transfected cells; host or cells: HEK293, transient

[2] = target: T4, human KOR receptors (hKOR) (Homo sapiens, UniProt P41145); experiment: [35S]GTPγS functional assay on hKOR-CHO cell membranes; assay type: biochemical; conditions: SEM
T4 construct: expressed in transfected cells
Procedure: CHO cells stably transfected with human KOR receptors (hKOR-CHO) were courtesy of Prof. Liu-Chen (Temple University, Philadelphia, PA, USA). Cells were grown in Gibco™ Dulbecco’s Minimal Essential Medium (DMEM) supplemented with 10% FBS, Glutamax (100 μg/mL), penicillin/ streptomycin (100 μg/mL) and geneticin (G418, 400 μg/mL). […] Cell cultures were maintained in a Heracell™ 150i CO2 incubator at 37 °C and 5.0% CO2.
Functional assays were conducted on hKOR-CHO cell membranes. Membranes were prepared in 50 mM Tris-HCl buffer pH 7.7. Cells were harvested by scraping the plates with a rubber policeman and were then centrifuged at 500× g for 10 min. The cell pellet was resuspended in Tris-HCl, homogenized with a Dounce homogenizer and centrifuged at 27,000× g for 15 min. […] The protein concentration of the homogenate was determined by Biuret reaction (RotiQuant Universal, Carl Roth) and stored at −70 °C until use.
To perform the GTPγS assay, membrane homogenates (10 μg/reaction tube) were diluted in HEPES buffer (20 mM) together with 10 μM GDP and 0.05 nM [^35S]GTPγS (Perkin Elmer, MA, USA). […] Non-specific binding was determined using 10 μM unlabeled GTPγS (Sigma-Aldrich, Vienna, Austria). Samples were filtered over glass fiber filters (GF/B Whatman) and the bound radioactivity was measured by liquid scintillation counting as counts per minute (CPM).

hKOR with Gα2 subunit = target: T5, hKOR with Gα2 subunit (Homo sapiens, UniProt P41145); experiment: TRUPATH (BRET) G-protein dissociation, Gα2 subunit; assay type: cell-based; conditions: SEM
T5 construct: alpha7 nicotinic receptor signal peptide (N); expressed in transfected cells; host or cells: HEK293, transient

hKOR with Gα1 subunit = target: T6, hKOR with Gα1 subunit (Homo sapiens, UniProt P41145); experiment: TRUPATH (BRET) G-protein dissociation, Gα1 subunit; assay type: cell-based; conditions: SEM
T6 construct: alpha7 nicotinic receptor signal peptide (N); expressed in transfected cells; host or cells: HEK293, transient

hKOR with GαoA subunit = hKOR with GαoA subunit (Homo sapiens, UniProt P41145); experiment: cell-based; conditions: SEM
hKOR with GαZ subunit = target: T7, hKOR with GαZ subunit (Homo sapiens, UniProt P41145); experiment: TRUPATH (BRET) G-protein dissociation, GαZ subunit; assay type: cell-based; conditions: SEM
T7 construct: alpha7 nicotinic receptor signal peptide (N); expressed in transfected cells; host or cells: HEK293, transient

[3] = EC50, TRUPATH α3 (#, same cell batch), HEK293 with hKOR and Gα3, signal bias series marked #, performed on the same cell batch, n = 9

T1 sequence (P41145 whole entry): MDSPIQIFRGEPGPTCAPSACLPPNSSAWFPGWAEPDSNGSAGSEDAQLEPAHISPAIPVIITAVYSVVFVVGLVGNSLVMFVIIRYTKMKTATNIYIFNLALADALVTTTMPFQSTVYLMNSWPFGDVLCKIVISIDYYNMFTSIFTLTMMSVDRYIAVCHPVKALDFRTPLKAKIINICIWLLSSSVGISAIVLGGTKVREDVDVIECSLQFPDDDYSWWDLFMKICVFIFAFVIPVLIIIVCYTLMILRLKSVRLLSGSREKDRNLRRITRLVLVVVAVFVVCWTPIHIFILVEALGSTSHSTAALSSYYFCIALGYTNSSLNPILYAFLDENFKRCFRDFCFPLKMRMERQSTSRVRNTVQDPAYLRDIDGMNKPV
T1 sequence (P32121 whole entry partner): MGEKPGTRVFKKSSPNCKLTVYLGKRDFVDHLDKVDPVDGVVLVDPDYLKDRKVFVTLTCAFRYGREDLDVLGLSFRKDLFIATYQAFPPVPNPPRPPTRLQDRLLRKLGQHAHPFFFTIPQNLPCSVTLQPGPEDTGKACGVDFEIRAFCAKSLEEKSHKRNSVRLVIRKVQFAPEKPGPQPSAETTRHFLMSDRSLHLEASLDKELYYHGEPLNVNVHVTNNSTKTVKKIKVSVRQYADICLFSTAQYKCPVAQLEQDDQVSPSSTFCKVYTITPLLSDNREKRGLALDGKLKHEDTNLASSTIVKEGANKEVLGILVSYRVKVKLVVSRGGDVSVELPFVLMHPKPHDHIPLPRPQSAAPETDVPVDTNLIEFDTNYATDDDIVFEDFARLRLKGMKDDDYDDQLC
T2 sequence (P41145 whole entry): as the sequence (P41145 whole entry) above
T2 sequence (P08754 whole entry partner): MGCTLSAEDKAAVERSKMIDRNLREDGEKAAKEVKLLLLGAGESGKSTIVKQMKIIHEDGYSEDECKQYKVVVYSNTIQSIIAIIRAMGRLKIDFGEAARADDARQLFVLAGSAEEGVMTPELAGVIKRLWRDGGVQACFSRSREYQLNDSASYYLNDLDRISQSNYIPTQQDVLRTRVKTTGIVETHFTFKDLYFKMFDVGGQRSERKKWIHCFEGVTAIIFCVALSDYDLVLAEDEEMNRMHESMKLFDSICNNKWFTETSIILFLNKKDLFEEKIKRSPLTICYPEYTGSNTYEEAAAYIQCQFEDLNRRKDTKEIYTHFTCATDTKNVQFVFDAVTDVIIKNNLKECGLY
T2 sequence (P16520 whole entry partner): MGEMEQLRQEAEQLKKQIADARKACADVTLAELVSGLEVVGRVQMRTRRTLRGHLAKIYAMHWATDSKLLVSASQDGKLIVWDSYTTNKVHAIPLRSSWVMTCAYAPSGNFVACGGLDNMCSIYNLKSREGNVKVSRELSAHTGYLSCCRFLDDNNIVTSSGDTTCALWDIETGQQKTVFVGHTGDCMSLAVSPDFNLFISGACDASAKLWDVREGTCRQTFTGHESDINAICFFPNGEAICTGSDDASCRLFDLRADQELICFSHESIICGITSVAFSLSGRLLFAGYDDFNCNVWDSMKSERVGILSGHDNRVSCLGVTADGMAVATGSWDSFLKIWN
T2 sequence (O14610 1-66 partner limits assumed): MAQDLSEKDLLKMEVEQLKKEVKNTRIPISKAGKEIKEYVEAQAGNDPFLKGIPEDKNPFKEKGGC
T5 sequence (P41145 whole entry): as the sequence (P41145 whole entry) above
T5 sequence (P04899 whole entry partner): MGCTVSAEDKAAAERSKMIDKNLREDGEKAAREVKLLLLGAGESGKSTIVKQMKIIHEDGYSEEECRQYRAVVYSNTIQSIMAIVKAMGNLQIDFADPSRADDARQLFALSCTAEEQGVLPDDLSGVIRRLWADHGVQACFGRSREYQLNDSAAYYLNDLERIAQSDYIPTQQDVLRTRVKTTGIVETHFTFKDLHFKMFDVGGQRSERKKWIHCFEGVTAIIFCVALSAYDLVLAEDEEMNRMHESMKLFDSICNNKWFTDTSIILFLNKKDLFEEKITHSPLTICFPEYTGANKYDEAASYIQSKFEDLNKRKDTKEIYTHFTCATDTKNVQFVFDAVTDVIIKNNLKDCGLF
T5 sequence (P16520 whole entry partner): as the sequence (P16520 whole entry partner) above
T5 sequence (Q9UK08 1-67 partner limits assumed): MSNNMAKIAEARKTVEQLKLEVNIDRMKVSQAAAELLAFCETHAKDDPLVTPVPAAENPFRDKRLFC
T4 sequence (P41145 whole entry): as the sequence (P41145 whole entry) above
T3 sequence (P41145 whole entry): as above
T3 sequence (P09471 1-354 isoform P09471-2 partner): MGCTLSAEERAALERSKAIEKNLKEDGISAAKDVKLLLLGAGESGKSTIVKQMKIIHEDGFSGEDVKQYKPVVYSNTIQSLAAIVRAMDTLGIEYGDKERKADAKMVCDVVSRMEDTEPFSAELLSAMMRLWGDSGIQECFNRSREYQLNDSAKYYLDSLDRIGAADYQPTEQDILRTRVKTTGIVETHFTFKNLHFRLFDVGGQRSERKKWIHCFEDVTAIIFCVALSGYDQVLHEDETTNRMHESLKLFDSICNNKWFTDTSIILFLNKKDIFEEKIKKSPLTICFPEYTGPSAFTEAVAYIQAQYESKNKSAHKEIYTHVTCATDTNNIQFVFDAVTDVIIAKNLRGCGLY
T3 sequence (P16520 whole entry partner): as the sequence (P16520 whole entry partner) above
T3 sequence (Q9UK08 1-67 partner limits assumed): as the sequence (Q9UK08 1-67 partner limits assumed) above
T7 sequence (P41145 whole entry): as the sequence (P41145 whole entry) above
T7 sequence (P19086 whole entry partner): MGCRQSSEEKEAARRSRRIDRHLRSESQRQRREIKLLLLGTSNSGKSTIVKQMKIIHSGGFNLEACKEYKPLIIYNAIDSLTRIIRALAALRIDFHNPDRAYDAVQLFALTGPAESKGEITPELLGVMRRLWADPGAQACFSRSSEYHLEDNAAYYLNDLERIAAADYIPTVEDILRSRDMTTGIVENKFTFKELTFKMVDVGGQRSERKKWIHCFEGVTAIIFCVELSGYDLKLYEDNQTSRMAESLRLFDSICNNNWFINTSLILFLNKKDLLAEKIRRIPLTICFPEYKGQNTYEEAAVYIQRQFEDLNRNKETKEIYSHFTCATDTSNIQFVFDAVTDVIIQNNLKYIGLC
T7 sequence (P16520 whole entry partner): as the sequence (P16520 whole entry partner) above
T7 sequence (P63211 1-71 partner limits assumed): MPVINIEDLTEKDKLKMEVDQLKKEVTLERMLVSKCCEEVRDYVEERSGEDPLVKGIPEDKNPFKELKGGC
hKOR with GαoA subunit, sequence (P16520 whole entry): as the sequence (P16520 whole entry partner) above
hKOR with GαoA subunit, sequence (P41145 whole entry): as the sequence (P41145 whole entry) above
hKOR with GαoA subunit, sequence (P09471 whole entry, further chain): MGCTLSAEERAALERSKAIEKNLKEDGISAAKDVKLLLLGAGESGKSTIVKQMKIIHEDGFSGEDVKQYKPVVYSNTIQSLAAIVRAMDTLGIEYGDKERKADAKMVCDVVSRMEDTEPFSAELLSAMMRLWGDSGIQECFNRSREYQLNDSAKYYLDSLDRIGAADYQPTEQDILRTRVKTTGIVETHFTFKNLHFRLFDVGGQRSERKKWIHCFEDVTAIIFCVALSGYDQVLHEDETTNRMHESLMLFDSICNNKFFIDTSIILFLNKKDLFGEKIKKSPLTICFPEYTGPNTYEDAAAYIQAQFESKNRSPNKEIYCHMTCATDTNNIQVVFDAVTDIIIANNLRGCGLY
hKOR with GαoA subunit, sequence (Q9UK08 1-67, further chain): as the sequence (Q9UK08 1-67 partner limits assumed) above
T6 sequence (P16520 whole entry): as the sequence (P16520 whole entry partner) above
T6 sequence (P63096 whole entry, further chain): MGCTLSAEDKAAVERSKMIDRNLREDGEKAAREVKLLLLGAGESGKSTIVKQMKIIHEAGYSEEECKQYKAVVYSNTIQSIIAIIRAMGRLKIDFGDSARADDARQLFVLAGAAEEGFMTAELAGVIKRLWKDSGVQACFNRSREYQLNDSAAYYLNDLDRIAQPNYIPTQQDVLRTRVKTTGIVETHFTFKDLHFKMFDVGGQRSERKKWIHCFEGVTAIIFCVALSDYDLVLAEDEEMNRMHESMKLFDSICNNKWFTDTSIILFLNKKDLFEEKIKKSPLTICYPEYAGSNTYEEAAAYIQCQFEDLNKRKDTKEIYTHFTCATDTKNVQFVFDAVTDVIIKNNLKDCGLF
T6 sequence (P41145 whole entry): as the sequence (P41145 whole entry) above
T6 sequence (O14610 1-66, further chain): as the sequence (O14610 1-66 partner limits assumed) above

Row | Sequence | EC50 [1] [nM] | EC50 (hKOR with Gα3 subunit; [3]) [nM] | EC50 (hKOR with GαoB subunit) [nM] | EC50 [2] [nM] | EC50 (hKOR with Gα2 subunit) [nM] | EC50 (hKOR with Gα1 subunit) [nM] | EC50 (hKOR with GαoA subunit) [nM] | EC50 (hKOR with Gα3 subunit; EC50, TRUPATH α3, HEK293 transiently transfected with hKOR and Gα3, 30 min, n = 6 (transducerome series)) [nM] | EC50 (hKOR with GαZ subunit) [nM]
1 | YGGFSRRIRPKLKWDNQ [DynA_L5S] | 236 ± 65 | 78 ± 37 |  |  |  |  |  |  | 
2 | YGGFLWRIRPKLKWDNQ [DynA_R6W] | 670 ± 215 | 133 ± 75 | 62 ± 15 | 105 ± 23 | 78 ± 42 | 211 ± 36 | 133 ± 80 | 161 ± 51 | 27 ± 9
3 | YGGFLRRICPKLKWDNQ [DynA_R9C] | 88 ± 32 | 24 ± 9 |  |  |  |  |  |  | 
